Laboratory results: patent publication US8962630B2, “Pyrrolopyrimidine compounds and their uses” (Novartis AG, priority 2008, dated 2015)
pIC50: −log10 of the molar value. Where two headings read alike, the source gives them in different places.

Experiments:
Assay type in all cases: biochemical
[1] = target: CDK1/cyclin B (Homo sapiens (Human), UniProt P06493); test: CDK1/Cyclin B enzymatic activity assay (IMAP-FP); conditions: for pIC50: Table 2, 20 μM ATP, read-out: CDK1; for IC50: Table 4, read-out: IC50 (μM) CDK1
From the text: A 384-well microtiter IMAP-FPT™ (Molecular Devices Trade Mark Technology) endpoint assay was used for CDK1/cyclin B kinase activity measurements. The same assay was used for IC50 determination of small molecule inhibitors.

[2] = target: CDK2/cyclin A (Homo sapiens (Human), UniProt P24941); test: CDK2/Cyclin A enzymatic activity assay (IMAP-FP); conditions: for pIC50: Table 2, read-out: CDK2; for IC50: Table 4, read-out: IC50 (μM) CDK2
[3] = target: CDK4/cyclin D1 (Homo sapiens (Human), UniProt P11802); test: CDK4/Cyclin D1 enzymatic activity assay (Lance TR-FRET); conditions: for pIC50: Table 2, 3 μM ATP, read-out: CDK4; for IC50: Table 4, read-out: IC50 (μM) CDK4
Procedure: A 384-well microtiter Lance TR-FRET (time-resolved-fluorescence energy transfer) endpoint assay was used for CDK4/cyclin D1 kinase activity measurements. The same assay was used for IC50 determination of small molecule inhibitors. In general, the kinase reactions were carried out in 30 μL volumes in the reaction solution containing the following: 2 uL compound (in […]), 18 uL CDK4/cyclin D1 in Assay Buffer (50 mM HEPES, pH 7.5, 5 mM MgCl2, 2 mM MnCl2, 1 mM DTT, 0.05% BSA, 0.02% Tween-20), 10 uL of the mixture of pRb152 and ATP. The final reaction mixture contains compound (inhibitor) with the concentration varying from 0.005-10 μM, 2% DMSO, 0.3 nM CDK4/cyclin D1, 175 nM pRb152, and 3 μM ATP (Amersham Pharmacia, Cat. No. 27-2056-01). All reactions were run at room temperature in 384-well white flat-bottom OptiPlates (Perkin Elmer, Cat. No. 6007290) for 60 min then were quenched by the addition of 10 μL of 120 mM EDTA. The signals were captured by the addition of 40 μL of the Detection Solution containing the following: Detection Buffer (50 mM HEPES, pH 7.5, 30 mM EDTA, 0.1% Triton x-100, 0.05% BSA), 70 ng/mL anti-phospho-pRb(S780) (Cell Signaling Technology, Cat. No. 9307S), 1 nM Lance Eu-W1024-Rabbit anti-IgG (Perkin Elmer, Cat. No. AD0082), and 20 nM SureLight™ Allophycocyanin-Streptavidin (Perkin Elmer, Cat. No. CR130-100). The resulted solutions were incubated at room temperature for 2 hours before read on the Evision Multilabel Reader (Perkin Elmer, Envision 2102-0010).
CDk4/cyclin D1 recombinant protein used in the enzymatic activity assay was prepared by coexpressing pDEST10-CDK4 (N-terminal His6) and pFastBacDual-GST-hCyclinDl viruses in Sf21 cells.

Sequence of CDK4/cyclin D1 (P11802 whole entry): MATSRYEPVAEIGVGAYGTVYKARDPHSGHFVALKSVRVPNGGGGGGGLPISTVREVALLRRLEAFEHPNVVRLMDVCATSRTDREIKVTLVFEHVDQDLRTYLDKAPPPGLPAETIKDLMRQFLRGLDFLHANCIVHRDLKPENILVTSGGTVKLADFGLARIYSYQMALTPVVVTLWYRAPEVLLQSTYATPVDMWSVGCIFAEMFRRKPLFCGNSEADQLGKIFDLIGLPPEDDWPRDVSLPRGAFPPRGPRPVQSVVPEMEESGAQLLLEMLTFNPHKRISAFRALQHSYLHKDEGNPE
Sequence of CDK4/cyclin D1 (P24385 whole entry partner): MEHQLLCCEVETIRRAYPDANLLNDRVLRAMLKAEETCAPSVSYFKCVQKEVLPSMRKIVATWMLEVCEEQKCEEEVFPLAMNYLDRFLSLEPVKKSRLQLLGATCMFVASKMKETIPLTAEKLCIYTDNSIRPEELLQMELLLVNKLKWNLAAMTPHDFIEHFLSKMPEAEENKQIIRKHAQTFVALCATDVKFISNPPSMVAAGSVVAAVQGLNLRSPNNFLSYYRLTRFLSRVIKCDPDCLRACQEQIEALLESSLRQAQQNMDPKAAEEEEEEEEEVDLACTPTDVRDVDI
Sequence of CDK1/cyclin B (P06493 whole entry, species assumed): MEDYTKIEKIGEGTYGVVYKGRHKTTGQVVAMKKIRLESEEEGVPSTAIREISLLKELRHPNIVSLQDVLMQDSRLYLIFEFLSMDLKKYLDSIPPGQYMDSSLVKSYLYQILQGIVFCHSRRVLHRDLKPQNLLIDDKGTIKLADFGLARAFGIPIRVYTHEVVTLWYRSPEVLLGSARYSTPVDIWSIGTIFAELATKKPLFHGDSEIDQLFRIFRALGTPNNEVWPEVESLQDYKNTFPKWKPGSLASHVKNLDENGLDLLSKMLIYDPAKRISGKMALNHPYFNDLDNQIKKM
Sequence of CDK1/cyclin B (P14635 whole entry partner, species assumed): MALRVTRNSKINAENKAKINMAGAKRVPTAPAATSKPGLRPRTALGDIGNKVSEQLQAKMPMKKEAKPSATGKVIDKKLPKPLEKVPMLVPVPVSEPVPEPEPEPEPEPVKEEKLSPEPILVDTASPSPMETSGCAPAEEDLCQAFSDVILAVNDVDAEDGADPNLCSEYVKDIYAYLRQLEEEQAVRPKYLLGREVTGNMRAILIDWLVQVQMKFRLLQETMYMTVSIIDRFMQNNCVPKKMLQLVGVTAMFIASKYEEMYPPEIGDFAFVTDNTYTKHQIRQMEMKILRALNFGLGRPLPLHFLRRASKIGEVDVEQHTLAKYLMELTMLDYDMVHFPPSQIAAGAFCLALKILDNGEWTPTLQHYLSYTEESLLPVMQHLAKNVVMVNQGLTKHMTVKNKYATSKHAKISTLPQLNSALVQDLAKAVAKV

SMILES	pIC50 [1]	pIC50 [2]	pIC50 [3]	IC50 [1]	IC50 [2]	IC50 [3]
C[C@@H]1CN(c2ccc(Nc3ncc4cc(C(=O)N(C)C)n(C5CCCC5)c4n3)nc2)CCN1 [Example 16, 7-Cyclopentyl-2-[5-((R)-3-methyl-piperazin-1-yl)-pyridin-2-ylamino]-7H-pyrrolo[2,3-d]pyrimidine-6-carboxylic acid dimethylamide]	< 4.82	< 4.82	8.00 to 9.00			
C[C@@H]1CN(Cc2ccc(Nc3ncc4cc(C(=O)N(C)C)n(C5CCCC5)c4n3)nc2)C[C@H](C)N1 [Example 75, 7-Cyclopentyl-2-[5-((3S,5R)-3,5-dimethyl-piperazin-1-ylmethyl)-pyridin-2-ylamino]-7H-pyrrolo[2,3-d]pyrimidine-6-carboxylic acid dimethylamide]	< 4.82	< 4.82	7.00 to 8.00			
CC(C)N1CCN(c2ccc(Nc3ncc4cc(C(=O)N(C)C)n(C5CCCC5)c4n3)nn2)CC1 [Example 70, 7-Cyclopentyl-2-[6-(4-isopropyl-piperazin-1-yl)-pyridazin-3-ylamino]-7H-pyrrolo[2,3-d]pyrimidine-6-carboxylic acid dimethylamide]	< 4.82	< 4.82	7.00 to 8.00			
CN(C)C(=O)c1cc2cnc(Nc3ccc(N4CCN(CCOCCO)CC4)cn3)nc2n1C1CCCC1 [Example 33, 7-Cyclopentyl-2-(5-{4-[2-(2-hydroxy-ethoxy)-ethyl]-piperazin-1-yl}-pyridin-2-ylamino)-7H-pyrrolo[2,3-d]pyrimidine-6-carboxylic acid dimethylamide]	< 4.82	< 4.82	7.00 to 8.00			
CN(C)C(=O)c1cc2cnc(Nc3ccc(N4CCN(C(=O)C5CC5)CC4)cn3)nc2n1C1CCCC1 [Example 27, 7-Cyclopentyl-2-[5-(4-cyclopropanecarbonyl-piperazin-1-yl)-pyridin-2-ylamino]-7H-pyrrolo[2,3-d]pyrimidine-6-carboxylic acid dimethylamide]	< 4.82	< 4.82	7.00 to 8.00			
CN(C)C(=O)c1cc2cnc(Nc3ccc(N4CCC(N(C)C)CC4)cn3)nc2n1C1CCCC1 [Example 6, 7-Cyclopentyl-2-(4-dimethylamino-3,4,5,6-tetrahydro-2-[1,3′]bipyridinyl-6′-ylamino)-7H-pyrrolo[2,3-d]pyrimidine-6-carboxylic acid dimethylamide]	< 4.82	< 4.82	8.00 to 9.00			
CN(C)C(=O)c1cc2cnc(Nc3ccc(C4CCN(CCO)CC4)cn3)nc2n1C1CCCC1 [Example 100, 7-Cyclopentyl-2-[1′-(2-hydroxy-ethyl)-1′,2′,3′,4′,5′,6′-hexahydro-[3,4]bipyridinyl-6-ylamino]-7H-pyrrolo[2,3-d]pyrimidine-6-carboxylic acid dimethylamide]	< 4.82	< 4.82	7.00 to 8.00			
CN(C)C(=O)c1cc2cnc(Nc3ccc(N4CCN(CCO)CC4)cn3)nc2n1C1CCCC1 [Example 26, 7-Cyclopentyl-2-{5-[4-(2-hydroxy-ethyl)-piperazin-1-yl]-pyridin-2-ylamino}-7H-pyrrolo[2,3-d]pyrimidine-6-carboxylic acid dimethylamide]	< 4.82	< 4.82	7.00 to 8.00	> 15 µM	> 15 µM	0.026 µM
CN(C)C(=O)c1cc2cnc(Nc3ccc(CN4CCNCC4)cn3)nc2n1C1CCCC1 [Example 42, 7-Cyclopentyl-2-(5-piperazin-1-ylmethyl-pyridin-2-ylamino)-7H-pyrrolo[2,3-d]pyri-midine-6-carboxylic acid dimethylamide]	< 4.82	< 4.82	7.00 to 8.00			
CC1CN(Cc2ccc(Nc3ncc4cc(C(=O)N(C)C)n(C5CCCC5)c4n3)nc2)CCN1 (centres unmarked) [Example 54, 7-Cyclopentyl-2-[5-(3-methyl-piperazin-1-ylmethyl)-pyridin-2-ylamino]-7H-pyrrolo[2,3-d]pyrimidine-6-carboxylic acid dimethylamide]	< 4.82	< 4.82	7.00 to 8.00			
CC(C)N1CCN(c2ccc(Nc3ncc4cc(C(=O)N(C)C)n(C5CCCC5)c4n3)nc2)CC1 [Example 63, 7-Cyclopentyl-2-[5-(4-isopropyl-piperazin-1-yl)-pyridin-2-ylamino]-7H-pyrrolo[2,3-d]pyrimidine-6-carboxylic acid dimethylamide]	< 4.82	< 4.82	8.00 to 9.00	> 15 µM	> 15 µM	0.008 µM
CN(C)C(=O)c1cc2cnc(Nc3ccc(N4CCNCC4)nn3)nc2n1C1CCCC1 [Example 67, 7-Cyclopentyl-2-(6-piperazin-1-yl-pyridazin-3-ylamino)-7H-pyrrolo[2,3-d]pyrimidine-6-carboxylic acid dimethylamide]	< 4.82	< 4.82	7.00 to 8.00			
CN(C)C(=O)c1cc2cnc(Nc3ccc(N4CCN(C[C@@H](O)CO)CC4)cn3)nc2n1C1CCCC1 [Example 46, 7-Cyclopentyl-2-{5-[4-((R)-2,3-dihydroxy-propyl)-piperazin-1-yl]-pyridin-2-ylamino}-7H-pyrrolo[2,3-d]pyrimidine-6-carboxylic acid dimethylamide]	< 4.82	< 4.82	7.00 to 8.00			
CN(C)C(=O)c1cc2cnc(Nc3ccc(N4CCN(CC(C)(C)O)CC4)cn3)nc2n1C1CCCC1 [Example 71, 7-Cyclopentyl-2-{5-[4-(2-hydroxy-2-methyl-propyl)-piperazin-1-yl]-pyridin-2-ylamino}-7H-pyrrolo[2,3-d]pyrimidine-6-carboxylic acid dimethylamide]	< 4.82	< 4.82	7.00 to 8.00			
CN(C)C(=O)c1cc2cnc(Nc3ccc(N4CCC(CCO)CC4)cn3)nc2n1C1CCCC1 [Example 35, 7-Cyclopentyl-2-[4-(2-hydroxy-ethyl)-3,4,5,6-tetrahydro-2H-[1,3′]bipyridinyl-6′-ylamino]-7H-pyrrolo[2,3-d]pyrimidine-6-carboxylic acid dimethylamide]	5.33	5.54	7.00 to 8.00			
CC(C)N1CCC(c2ccc(Nc3ncc4cc(C(=O)N(C)C)n(C5CCCC5)c4n3)nc2)CC1 [Example 80, 7-Cyclopentyl-2-(1′-isopropyl-1′,2′,3′,4′,5′,6′-hexahydro-[3,4′]bipyridinyl-6-ylamino)-7H-pyrrolo[2,3-d]pyrimidine-6-carboxylic acid dimethylamide]	< 4.82	< 4.82	7.00 to 8.00			
CNC(=O)c1cc2cnc(Nc3ccc(N4CCNCC4)cn3)nc2n1C1CCCC1 [Example 58, 7-Cyclopentyl-2-(5-piperazin-1-yl-pyridin-2-ylamino)-7H-pyrrolo[2,3-d]pyrimidine-6-carboxylic acid methylamide]	< 4.82	< 4.82	7.00 to 8.00			
CC(=O)N1CCN(Cc2ccc(Nc3ncc4cc(C(=O)N(C)C)n(C5CCCC5)c4n3)nc2)CC1 [Example 61, 2-[5-(4-Acetyl-piperazin-1-ylmethyl)-pyridin-2-ylamino]-7-cyclopentyl-7H-pyrrolo[2,3-d]pyrimidine-6-carboxylic acid dimethylamide]	< 4.82	< 4.82	6.00 to 7.00			
CN(C)C(=O)c1cc2cnc(Nc3ccc(C(=O)N(C)C4CCNCC4)cn3)nc2n1C1CCCC1 [Example 53, 7-Cyclopentyl-2-[5-(methyl-piperidin-4-yl-carbamoyl)-pyridin-2-ylamino]-7H-pyrrolo[2,3-d]pyrimidine-6-carboxylic acid dimethylamide]	< 4.82	< 4.82	7.00 to 8.00			
CN(C)C(=O)c1cc2cnc(Nc3ccc(N4CCNCC4=O)cn3)nc2n1C1CCCC1 [Example 109, 7-cyclopentyl-2-[5-(2-oxopiperazin-1-yl)pyridin-2-ylamino]-7H-pyrrolo[2,3-d]pyrimidine-6-carboxylic acid dimethylamide]			6.00 to 7.00			
CN(C)C(=O)c1cc2cnc(Nc3ccc(CN4CC5CCC(C4)N5)cn3)nc2n1C1CCCC1 [Example 73, 7-Cyclopentyl-2-[5-(3,8-diaza-bicyclo[3.2.1]oct-3-ylmethyl)-pyridin-2-ylamino]-7H-pyrrolo[2,3-d]pyrimidine-6-carboxylic acid dimethylamide]			7.00 to 8.00			
